Experimental findings from patent US20190185479A1, “BICYCLIC NITROGENATED HETEROCYCLIC COMPOUND” (MITSUBISHI TANABE PHARMA CORPORATION, priority 2016, published 2019) are described below.

Holding throughout (format): biochemical
One assay concerns the target T1, hPDE4D (Homo sapiens, UniProt Q08499).
T1 construct: purchased SB Drug Discovery
The assay is described as follows: PDE4 inhibition assay (IC50), Experimental Example 3. The settings on record: hPDE4D; read-out: PDE inhibition assay IC50, PDE4. The procedure, abridged: (§1)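 Recombinant human enzymes incubated with compound and 3 nmol/L cAMP (final) in Tris-HCl pH 7.5 buffer with MgCl2, BSA, DTT, 2% DMSO final, 60 min at room temperature. Residual cAMP measured by TR-FRET (LANCE Ultra), reaction stopped with 0.5 mmol/L IBMX. IC50 from inhibition relative to no-compound (0%) and no-enzyme (100%) controls.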

The target of another assay is T2, hPDE5A (Homo sapiens, UniProt O76074).
T2 construct: purchased SB Drug Discovery
As to the kind of experiment: PDE7 selectivity test (Ki value), Experimental Example 2: hPDE5A. The settings on record: Ki from IC50 by Cheng-Prusoff, read-out: PDE inhibition constant Ki, PDE5. On the procedure: (§2) hPDE1A, hPDE2A, hPDE3A, hPDE4D, hPDE5A, and hPDE8B were purchased from SB Drug Discovery. hPDE7B was isolated by the same method as [Method for preparing samples 1], and hPDE9A, hPDE10A, and hPDE11A were isolated by the same method as hPDE7B, i.e., isolated from COS-7 cells transfected with plasmids encoding each PDE. PDE6 was purified and isolated from bovine retina (bovine PDE6).
(§3) Prior to the calculation of Ki value, Km value of each PDE against cAMP or cGMP was calculated. Each PDE diluted with an assay buffer so that it would have an appropriate enzyme activity, and six or more concentrations of cAMP or cGMP were reacted at room temperature for 60 minutes. Regarding PDE using cAMP as a substrate, PDELight (trademark) HTS cAMP phosphodiesterase Kit (Lonza) was used to measure a degradation product, 5′-AMP. Also, regarding PDE using cGMP as a substrate, […] of perchloric acid was added to the mixture to stop the reaction, and the resulting mixture was subjected to LC-MS/MS to measure the residual cGMP concentration. The amount of degraded substrate in each substrate concentration was calculated, the concentration of the added substrate was plotted on the horizontal axis, the amount of degraded substrate was plotted on the vertical axis, and Km value was calculated by non-linear regression on the basis of Michaelis-Menten equation. Km value (substrate) of each PDE was hPDE1A: 4.3 (cGMP), hPDE2A: 36 (cAMP), hPDE3A: 0.11 (cAMP), hPDE4D: 0.90 (cAMP), hPDE5A: 3.9 (cGMP), bovine PDE6:9.8 (cGMP), hPDE7B: 0.015 (cAMP), hPDE8B: 0.63 (cAMP), hPDE9A: 0.0037 (cGMP), hPDE10A: 0.051 (cAMP), and hPDE11A: 1.4 (cAMP) μmol/L, respectively.
(§4) Next, PDE inhibition assay of a compound was carried out using each PDE. The PDE inhibition assay was basically carried out by the same enzyme reaction method as [Assay procedure 1], and the degraded amount of cAMP or cGMP was measured by the same method as [Assay procedure 2]. In the assay, a concentration approximated to Km value of each PDE against cAMP or cGMP was used as a substrate concentration. Meanwhile, regarding hPDE5A, hPDE8B, and hPDE9A, IMAP (trademark) FP Phosphodiesterase Evaluation Assay Kit (Molecular Devices) was used to measure the degradation of FAM-cAMP or FAM-cGMP by fluorescence depolarization technique.
(§5) Each compound was evaluated at six or more concentrations with common ratio 10. Each inhibition rate was calculated according to <Method for data calculation 1>, and then each IC50 value was calculated by sigmoid regression. The resulting IC50 value was used in the following Cheng-Prusoff equation to calculate each Ki value. Ki=IC50/(1+[S]/Km), wherein [S] represents a substrate concentration used

For a further assay, the target named is T3, hPDE1A (Homo sapiens, UniProt P54750).
T3 construct: purchased SB Drug Discovery
T3 sequence (P54750 whole entry): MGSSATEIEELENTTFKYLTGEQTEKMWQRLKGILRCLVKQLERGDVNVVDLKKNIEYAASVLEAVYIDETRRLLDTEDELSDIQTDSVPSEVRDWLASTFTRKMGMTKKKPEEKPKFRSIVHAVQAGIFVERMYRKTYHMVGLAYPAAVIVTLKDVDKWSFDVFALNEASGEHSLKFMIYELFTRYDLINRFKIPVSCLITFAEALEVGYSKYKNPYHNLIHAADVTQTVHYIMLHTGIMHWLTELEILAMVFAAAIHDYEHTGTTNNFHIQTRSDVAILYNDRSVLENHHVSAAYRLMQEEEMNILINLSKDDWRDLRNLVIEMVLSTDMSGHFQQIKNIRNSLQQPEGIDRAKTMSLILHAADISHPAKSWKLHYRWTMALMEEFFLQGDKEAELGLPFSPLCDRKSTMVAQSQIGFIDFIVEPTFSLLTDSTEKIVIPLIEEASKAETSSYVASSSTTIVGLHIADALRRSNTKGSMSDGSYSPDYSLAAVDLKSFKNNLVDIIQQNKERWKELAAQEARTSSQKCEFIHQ
The assay is described as follows: PDE7 selectivity test (Ki value), Experimental Example 2: hPDE1A. The settings on record: Ki from IC50 by Cheng-Prusoff, read-out: PDE inhibition constant Ki, PDE1. The method, then: as §2, §3, §4, §5

The next assay concerns the target T4, hPDE8B (Homo sapiens, UniProt O95263).
T4 construct: purchased SB Drug Discovery
The assay is described as follows: PDE8 inhibition assay (IC50), Experimental Example 3. Conditions: hPDE8B; read-out: PDE inhibition assay IC50, PDE8. The method, boiled down:
as §1

A word on the IC50: it is the concentration needed to halve the response being measured. One may read the Ki as a dissociation constant, usually derived from enzyme kinetics or from competition with a known ligand.

T4 sequence (O95263 whole entry): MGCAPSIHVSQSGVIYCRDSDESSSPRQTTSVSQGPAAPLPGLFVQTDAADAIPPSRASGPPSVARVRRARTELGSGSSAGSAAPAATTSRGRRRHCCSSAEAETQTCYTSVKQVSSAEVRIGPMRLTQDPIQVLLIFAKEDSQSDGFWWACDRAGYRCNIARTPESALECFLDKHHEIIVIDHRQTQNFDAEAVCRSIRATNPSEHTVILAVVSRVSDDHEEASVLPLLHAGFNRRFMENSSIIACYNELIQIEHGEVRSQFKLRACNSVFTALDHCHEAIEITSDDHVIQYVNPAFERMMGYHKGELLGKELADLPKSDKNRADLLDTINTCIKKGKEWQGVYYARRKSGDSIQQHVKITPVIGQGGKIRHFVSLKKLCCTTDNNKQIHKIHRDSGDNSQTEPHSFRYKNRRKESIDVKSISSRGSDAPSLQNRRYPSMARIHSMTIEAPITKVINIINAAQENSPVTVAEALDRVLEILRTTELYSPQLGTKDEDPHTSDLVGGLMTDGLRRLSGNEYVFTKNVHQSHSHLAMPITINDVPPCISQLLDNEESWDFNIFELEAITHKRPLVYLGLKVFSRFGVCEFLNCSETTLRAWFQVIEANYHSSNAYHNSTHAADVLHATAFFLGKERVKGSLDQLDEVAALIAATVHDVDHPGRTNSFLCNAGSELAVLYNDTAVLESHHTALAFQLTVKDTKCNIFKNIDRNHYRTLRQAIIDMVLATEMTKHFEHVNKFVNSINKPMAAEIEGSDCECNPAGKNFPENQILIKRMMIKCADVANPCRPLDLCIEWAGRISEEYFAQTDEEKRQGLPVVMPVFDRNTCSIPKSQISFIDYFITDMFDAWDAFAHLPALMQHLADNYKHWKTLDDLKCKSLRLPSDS
T1 sequence (Q08499 whole entry): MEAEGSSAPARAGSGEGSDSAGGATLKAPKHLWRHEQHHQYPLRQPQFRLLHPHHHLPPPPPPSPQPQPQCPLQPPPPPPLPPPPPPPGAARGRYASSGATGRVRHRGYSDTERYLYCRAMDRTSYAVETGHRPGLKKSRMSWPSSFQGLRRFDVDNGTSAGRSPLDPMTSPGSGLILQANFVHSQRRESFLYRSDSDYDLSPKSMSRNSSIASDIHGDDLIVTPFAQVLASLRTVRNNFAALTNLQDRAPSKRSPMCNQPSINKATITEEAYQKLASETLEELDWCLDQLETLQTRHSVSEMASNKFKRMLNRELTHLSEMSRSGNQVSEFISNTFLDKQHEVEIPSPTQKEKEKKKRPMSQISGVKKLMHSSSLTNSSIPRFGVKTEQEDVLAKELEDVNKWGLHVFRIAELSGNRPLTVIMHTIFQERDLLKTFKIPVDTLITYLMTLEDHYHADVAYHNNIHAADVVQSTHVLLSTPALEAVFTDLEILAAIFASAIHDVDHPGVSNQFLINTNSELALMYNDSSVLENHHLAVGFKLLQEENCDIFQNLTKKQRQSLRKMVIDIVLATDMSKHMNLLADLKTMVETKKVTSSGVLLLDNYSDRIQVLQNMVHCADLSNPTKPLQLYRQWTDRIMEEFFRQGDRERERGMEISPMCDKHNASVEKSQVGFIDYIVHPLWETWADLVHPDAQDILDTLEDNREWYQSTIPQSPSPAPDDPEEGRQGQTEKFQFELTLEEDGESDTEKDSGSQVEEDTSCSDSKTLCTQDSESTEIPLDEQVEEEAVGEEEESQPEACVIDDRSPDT

In the case of `CC1CCCCC1n1nnc2c(N)ncnc21` (single isomer, unassigned) [Example 191, 3-(cis-2-methylcyclohexyl)-3H-[1,2,3]triazolo[4,5-d]pyrimidin-7-amine], the IC50 on hPDE4D is 9.2 µM; on hPDE8B, 5.33 µM. The Ki on hPDE5A was > 98 µM; on hPDE1A, 39 µM.
The matching figures for `Nc1ncnc2c1nnn2C1CCCCC1` [Example 3, 3-cyclohexyl-3H-[1,2,3]triazolo[4,5-d]pyrimidin-7-amine]: 7.82 µM, 0.7 µM, > 98 µM and > 52 µM.
As for `Cc1nc(N)c2nnn(C3CCCCC3)c2n1` [Example 4], on hPDE4D, the half-maximal inhibitory concentration (IC50) came out at 0.54 µM. For the same compound, the figures for the Ki at hPDE5A and on hPDE1A were > 9.8 µM and > 5.2 µM, respectively.
Consider `Nc1nccn2c(C3CCCCC3)nnc12` [Example 141, 3-cyclohexyl[1,2,4]triazolo[4,3-a]pyrazin-8-amine], for which the IC50 on hPDE4D turned out to be 6.22 µM; at hPDE8B, 1.77 µM. Besides, the Ki on hPDE5A is > 9.8 µM; at hPDE1A, > 5.2 µM.
For `C[C@@H]1CCC[C@H](c2nnc3c(N)nccn23)C1` [Example 204, 3-[(1S,3R)-3-methylcyclohexyl][1,2,4]triazolo[4,3-a]pyrazin-8-amine], the values for the IC50 on hPDE4D and on hPDE8B were 1.51 µM and 1.75 µM, respectively. The Ki on hPDE5A is > 98 µM; on hPDE1A, 8.9 µM.
